{
  "source": "patent US9474749B2",
  "about": "(priority 2004, dated 2016)",
  "key": {"[1]": {"system": "pedal ganglia", "experiment": "NO release from excised pedal ganglia (NO-selective microprobe)", "assay_type": "cell-based, Mytilus edulis", "protocol": "For the nitric oxide assay, ten pedal ganglia (per determination) dissected from M. edulis were bathed in 1 mL sterile phosphate buffered saline (PBS). […] For the opiate receptor antagonist experiments, ganglia were pretreated with naloxone for 10 minutes prior to reticuline addition. NO release was monitored with an NO-selective microprobe manufactured by World Precision Instruments (Sarasota, Fla.). The sensor was positioned approximately 100 μm above the respective tissue surface. […] The NO detection system was calibrated daily. The probe was allowed to equilibrate for 10 minutes in the incubation medium free of tissue before being transferred to vials containing the ganglia for another 5 minutes. Manipulation and handling of the ganglia was only performed with glass instruments. Data was acquired using the Apollo-4000 free radical analyzer (World Precision Instruments, Sarasota, Fla.). The experimental values were then transferred to Sigma-Plot and -Stat (Jandel, Calif.) for graphic representation and evaluation."}, "[2]": {"system": "pedal ganglia", "experiment": "NO release after daily morphine injections (tolerance)", "assay_type": "in vivo, Mytilus", "protocol": "45 Mytilus animals were divided into three groups. […] Two hours post-injection, NO release was measured."}, "[3]": {"system": "human immune and vascular tissues", "experiment": "NO release from human immune and vascular tissues", "assay_type": "cell-based", "settings": "morphine 10^−6 M"}, "[4]": {"system": "SK-N-SH neuroblastoma cell line", "experiment": "Cellular morphology (Form Factor) of neuroblastoma cells", "assay_type": "cell-based, human", "settings": "concomitant morphine and IFNγ", "quoted_text": "Cell viability was determined via Trypan blue exclusion. An inverted light microscope (Nikon) with a phase-contrast filter was used to observe the cells. Pictures of the cells were taken via a digital camera (Optronix) attached to the microscope ocular. Images were uploaded onto ImagePro Plus Software (Applied Biosystems), where cell viability was calculated based on both the number of cells covering the field and the cells that present as dead from the stain. In addition, ImagePro Plus was used for determining cellular morphology. The area and perimeter were found and used in the formula (4π*Area)/(Perimeter)^2, resulting in a value between 0 (a straight line) and 1 (a perfect circle)."}, "[5]": {"system": "NMDA NR1 Subunit", "experiment": "NMDA NR1 subunit mRNA expression (RT-PCR)", "assay_type": "cell-based, human", "protocol": "(§1) Isolation of total RNA was performed via RNA MiniPrep Kit (QIAGEN). Concentration of RNA was determined via GeneQuant II Spectrophotometer (Pharmacia Biotech) by multiplying A260 value with dilution factor and nucleic acid constant (0.04). Agarose gel electrophoresis (1%) was used to check for RNA quality.\n(§2) RT and PCR reactions were performed in GeneAmp PCR System 9700 (Applied Biosystems) using reverse transcriptase and Taq DNA Polymerase. Forward and reverse gene specific-primers for various subunits of the 20S proteasome and immunoproteasome were either obtained from the literature or designed through Primer Express Software 2.0 (Applied Biosystems) (Table 4). NMDA receptor subunit primers were also designed (Table 4). NMDA receptor expression was used as a marker of neurodegenerative disease.\n(§3) All primers were optimized for annealing temperatures and cycles (Table 5). Gel electrophoresis (2% agarose, 0.01% ethidium bromide) was performed and analyzed using a UV transilluminator (UVP) and GelPro Analyzer Software (Applied Biosystems). Relative band intensity was normalized with β-Actin reference gene."}, "[6]": {"system": "NMDA NR2B Subunit", "experiment": "NMDA NR2B subunit mRNA expression (RT-PCR)", "assay_type": "cell-based, human", "protocol": "as §1, §2, §3"}, "[7]": {"system": "20S Proteasome X Subunit (β5)", "experiment": "20S proteasome X subunit mRNA expression (RT-PCR)", "assay_type": "cell-based, human", "settings": "morphine 5 μM, 24 hours; control 0.716±0.015", "protocol": "as §1, §2, §3"}, "[8]": {"system": "20S Proteasome LMP7 Subunit (β5i)", "experiment": "LMP7 immunoproteasome subunit mRNA expression (RT-PCR)", "assay_type": "cell-based, human", "protocol": "as §1, §2, §3"}, "[9]": {"system": "20S Proteasome X (β5) Subunit", "experiment": "20S proteasome X subunit protein (Western blot)", "assay_type": "cell-based, human", "protocol": "(§4) To determine protein concentrations, protein was harvested using the following buffer: 20 mM Hepes (Sigma), 100 mM NaCl (Fisher), 10 mM NaF (Sigma), 1% Triton X-100 (Sigma), 1 mM sodium orthovanadate (Sigma), 10 mM EDTA (Sigma), pH 7.4, 0.1% protease inhibitor cocktail (Sigma), and ddH2O. Homogenized samples were spun in an ultracentrifuge at 10,000G for 20 minutes at 4° C. Concentration was determined via the Bradford assay (Bio-Rad) using bovine serum albumin (BSA, Sigma) for standard curve. To eliminate any potential pipetting error, samples and standards were read in triplicate.\n(§5) Western blotting was performed as follows. SDS-polyacrylamide gels (12% for separation and 5% for stacking) were made using the Mini Trans-Blot Cell (Bio-Rad). Based on the concentrations from the protein concentration determination assay, the proteins were mixed with 2× Protein Loading Buffer (0.2M DTT) for a final volume of 24 μL. Tris-Glycine Electrophoresis Buffer (1×) was used in SDS-PAGE, and proteins were separated at constant amperage (35 mA).\n(§6) Subsequent protein transfer to a nitrocellulose membrane involved use of the Mini Trans-Blot Cell apparatus run at constant voltage (100V) for 40 minutes. […]\n(§7) Substrate (Pierce) was administered as a means of stimulating chemiluminescence. Blots were developed and subsequently analyzed for relative band intensity using Gel-Pro software (Applied Biosystems)."}, "[10]": {"system": "26S proteasome", "experiment": "Chymotrypsin activity of the 26S proteasome (fluorometric)", "assay_type": "cell-based, human", "protocol": "(§8) Proteasome function assays were performed in an effort to examine the modulation in levels of protein degradation. Fluorometric assays were performed for both the chymotrypsin activity of the 26S proteasome as well as activity of the whole 20S proteasome using procedures adapted from Kotamraju et al. (Proc. Natl. Acad. Sci. USA, 100:10653-8 (2003)). Excitation at 365 nm and emission at 460 nM of the fluorogenic compound, […] (AMC), were measured using a Spectrofluoroscence Detector (McPherson)."}, "[11]": {"system": "20S proteasome", "experiment": "Activity of the whole 20S proteasome (fluorometric)", "assay_type": "cell-based, human", "protocol": "as §8"}, "[12]": {"system": "Ubiquitin", "experiment": "Free ubiquitin (Western blot)", "assay_type": "cell-based, human", "protocol": "as §4, §5, §6, §7"}, "[13]": {"system": "Immunoproteasome LMP7 (β5i) Subunit", "experiment": "LMP7 polypeptide expression (Western blot)", "assay_type": "cell-based, human", "settings": "36 and 48 hours", "protocol": "as §4, §5, §6, §7"}, "[14]": {"system": "SH-SY5Y cells", "quoted_text": "At various time points (initial and 1, 2, and 7 days), the cells were washed in phosphate buffered saline (PBS), placed in 250 μL PBS, and assessed for NO release. NO release was measured using an Apollo-4000 free radical analyzer with a 30 μm probe. The probe was calibrated daily with SNAP. Each assay was performed in quadruplicate. The mean±the standard error were graphed for each time point."}, "[15]": {"system": "Mytilus animals", "experiment": "TNF-α-induced death of animals", "settings": "morphine 10^−7 M daily for four days pre-treatment", "quoted_text": "100 healthy Mytilus animals were treated with 10 U/mL of TNF-α by injection."}, "[16]": {"system": "human saphenous veins", "experiment": "NO release from human saphenous veins", "settings": "2×10^−7 M morphine"}, "[17]": {"system": "SK-N-SH neuroblastoma cell line", "experiment": "NO release from SK-N-SH neuroblastoma cells", "settings": "morphine sulfate 5 μM; baseline 2 nM NO", "quoted_text": "The human SK-N-SH neuroblastoma cell line (ATCC #HTB-11) was used as a cellular model. Cells were propagated in Minimum Essential Medium alpha (MEMα) with 10% fetal bovine serum (FBS), 2% penicillin/streptomycin, 1.5 g/L NaHCO3, and 1.0 mM pyruvic acid. A 5% CO2 incubator (NAPCO) at 37° C. was used for maintenance of temperature and pH. […] When needed, cells were plated in 6- or 12-well plates using a hemocytometer (2×10^5 cells/well in 6-well plates or 1×10^5 cells/well in 12-well plates). Experimental manipulations were performed under sterile conditions under a lamina airflow hood after cells had adhered to the bottom of the plates."}, "[18]": {"system": "BACE-1", "experiment": "BACE-1 mRNA expression in HTB-11 cells (RT-PCR)", "settings": "24 hours", "quoted_text": "(§9) SH-SY5Y human neuroblastoma cells (ATCC, USA) were cultured in Dulbecco's modified Eagle's medium/Ham's nutrient mixture (DMEM-F12) (Invitrogen, USA), and HTB-11 human neuroblastoma cells (ATCC, USA) were cultured in Minimum Essential Medium Alpha Medium (MEM-α) (Invitrogen, USA). […] All treatments were performed under a sterile hood.\n(§10) After the treatment time-period, cells were harvested, and total RNA was extracted using RNeasy RNA Isolation kit (Qiagen) following the manufacturer's procedures. Total RNA yield was determined using a Spectrophotometer RNA/DNA calculator (Pharmacia Biotech). Total RNA concentration was then standardized for semi-quantitative RT-PCR, which was carried out in a Geneamp Thermocycler PCR System 9700 (P.E. Applied Biosystems). […] PCR products and a 100 bp DNA marker were then loaded in a 2% agarose gel stained with ethidium bromide. Gel electrophoresis was performed using a power-supply (E-C Apparatus Corp.) set at 110V with constant amperage for 1.5 hours. Gels were then photographed using a Gel Documentation System (UVP), and bands analyzed using Gel-Pro Analyzer (MediaCybernetics) on a P4 Windows machine."}, "[19]": {"system": "BACE-2", "experiment": "BACE-2 mRNA expression in HTB-11 cells (RT-PCR)", "settings": "morphine, 24 hours", "quoted_text": "as §9, §10"}, "[20]": {"system": "immunocytes", "experiment": "LPS activation of hemolymph cells from morphine pre-treated animals", "settings": "single pre-treatment, morphine 10^−6 M, LPS 1 μg/mL"}},
  "note": "Where “and” joins values, the source holds several entries; their conditions need not be identical. Equal values may be shown once. Read-outs that look alike come from different tables or passages of the source.",
  "data": [
    {"molecule": "CN1CC[C@]23c4c5ccc(O)c4O[C@H]2[C@@H](O)C=C[C@H]3[C@H]1C5", "note": "[Morphine, morphine]", "values": [
      {"measurement": "NO Peak Level", "setting": "[1]; ligand 10^−7 M", "value": "24.3 ± 3.1", "unit": "nM"},
      {"measurement": "NO Peak Time", "setting": "[1]; ligand 10^−7 M", "value": "0.8 ± 0.2", "unit": "min"},
      {"measurement": "duration of ganglionic NO release", "setting": "[1]; reticuline 10^−7 M, morphine 10^−6 M", "value": 5, "unit": "min"},
      {"measurement": "NO release on day one versus days two, three, and four", "setting": "[2]; 0.01 μM morphine daily", "value": "level similar"},
      {"measurement": "NO release after four days versus day one", "setting": "[2]; 1 μM morphine daily", "value": "substantially lower"},
      {"measurement": "NO release on 10 μM morphine challenge versus one day of 1 μM", "setting": "[2]; 1 μM morphine for four days", "value": "about half"},
      {"measurement": "NO release", "setting": "[3]", "value": "26 to 29", "unit": "nM"},
      {"measurement": "Form Factor (FF)", "setting": "[4]", "value": "0.58±0.01"},
      {"measurement": "NR1 expression", "setting": "[5]", "value": "1.40±0.056", "unit": "AU"},
      {"measurement": "NR2B expression", "setting": "[6]", "value": "1.09±0.06 AU and 1.17±0.04 AU"},
      {"measurement": "proteasomal X subunit mRNA expression", "setting": "[7]", "value": "0.868±0.007", "unit": "AU"},
      {"measurement": "LMP7 mRNA expression", "setting": "[8]; 5 μM morphine with rotenone, 24 hours", "value": "0.792±0.001", "unit": "AU"},
      {"measurement": "effect on IFNγ-induced LMP7 mRNA", "setting": "[8]; p<0.034", "value": "blocked the LMP7 increase induced by IFNγ"},
      {"measurement": "X subunit protein band intensity", "setting": "[9]", "value": "162 AU and 188 AU and 168 AU and 154 AU"},
      {"measurement": "activity of the chymotrypsin functional 26S active site", "setting": "[10]", "value": "277 ± 8.0", "unit": "pM"},
      {"measurement": "20S proteasome activity", "setting": "[11]", "value": "decrease in 20S proteasomal function"},
      {"measurement": "free ubiquitin", "setting": "[12]; 1 μM morphine, control 44", "value": 64, "unit": "AU"},
      {"measurement": "free ubiquitin", "setting": "[12]; 5 μM morphine", "value": 125, "unit": "AU"},
      {"measurement": "effect on IFNγ-stimulated LMP7 polypeptide expression", "setting": "[13]", "value": "blocked this action"},
      {"measurement": "NO release", "setting": "[14]; 10^−6 M morphine daily for six days, 10^−6 M on the seventh day", "value": 3.4, "unit": "nM"},
      {"measurement": "NO release", "setting": "[14]; morphine 10^−6 M", "value": "3 to 4", "unit": "nM"},
      {"measurement": "effect on TNF-α-induced death", "setting": "[15]", "value": "reduced the number of animals that died"},
      {"measurement": "NO released", "setting": "[16]", "value": "7 ± 2", "unit": "nM"},
      {"measurement": "peak NO release", "setting": "[17]", "value": 22.3, "unit": "nM"},
      {"measurement": "down regulation of BACE-1 expression", "setting": "[18]; 1 μM morphine", "value": 44, "unit": "%"},
      {"measurement": "down regulation of BACE-1 expression", "setting": "[18]; 5 μM morphine", "value": 18, "unit": "%"},
      {"measurement": "BACE-2 expression", "setting": "[19]", "value": "up regulates the expression of BACE-2"},
      {"measurement": "activation of LPS-treated cells", "setting": "[20]", "value": "19.3±3.8", "unit": "%"}
    ]}
  ]
}
